# Source: paper PMC6767204, “Synthesis and Biological Evaluation of Disubstituted Pyrimidines as Selective 5-HT2C Agonists” (Molecules, 2019)
# Read-outs that look alike come from different tables or passages of the source.
# Assays:
# [1] = biological target: T1, 5-HT1D receptor (Homo sapiens, UniProt P28221); assay: 5-HT receptor radioligand binding affinity assay, 1D; settings: for SI, selectivity index, 1D: subtype Ki divided by 5-HT2C Ki
# T1 construct: expressed in transfected cells; host or cells: HEK293 or CHO
# T1 sequence (P28221 whole entry): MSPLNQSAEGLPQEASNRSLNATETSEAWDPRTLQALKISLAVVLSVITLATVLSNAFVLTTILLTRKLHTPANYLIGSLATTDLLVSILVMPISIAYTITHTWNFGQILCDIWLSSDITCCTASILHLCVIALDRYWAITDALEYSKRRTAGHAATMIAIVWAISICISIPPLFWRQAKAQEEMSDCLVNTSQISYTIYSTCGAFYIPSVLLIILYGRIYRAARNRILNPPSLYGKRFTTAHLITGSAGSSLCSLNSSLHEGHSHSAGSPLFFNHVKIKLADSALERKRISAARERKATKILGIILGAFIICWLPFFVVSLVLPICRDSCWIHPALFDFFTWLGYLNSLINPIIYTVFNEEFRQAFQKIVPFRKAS
# Experimental: (§1) Eleven dilutions (5 x assay concentration) of the test and reference compounds (Table S1) were prepared in standard binding buffer (50 mM tris(hydroxymethyl)-aminomethane–HCl (Tris-HCl), 10 mM MgCl2, 1 mM ethylenediaminetetraacetate (EDTA), pH 7.4) by serial dilution: 0.05 nM, 0.5 nM, 1.5 nM, 5 nM, 15 nM, 50 nM, 150 nM, 500 nM, 1.5 μM, 5 μM, and 50 μM. The radioligand (Table S1) was diluted to five times the assay concentration in standard binding buffer. Aliquots (50 μL) of the radioligand were dispensed into the wells of a 96-well plate containing 100 μL of standard binding buffer. Triplicate aliquots (50 μL) of the test and reference compound dilutions were then added. Finally, crude membrane fractions (50 μL) of cells (HEK293 or CHO) expressing human recombinant receptors were dispensed into each well. A total 250 μL of the reaction mixtures was incubated at room temperature and shielded from light for 1.5 h, then harvested by rapid filtration onto Whatman GF/B glass fiber filters presoaked with 0.3% polyethyleneimine, by using a 96-well Brandel harvester.
# (§2) Four rapid washes were performed with chilled standard binding buffer (500 μL) to decrease nonspecific binding. Filters were placed in 6 mL scintillation tubes and allowed to dry overnight. The next day, 4 ml of EcoScint scintillation cocktail (National Diagnostics) was added to each tube. The tubes were capped, labeled, and counted by liquid scintillation counting. The filter mats were dried, and the scintillant was melted onto the filters, then the radioactivity retained on the filters was counted in a Microbeta scintillation counter. The IC50 values were obtained by using the Prism 4.0 program (GraphPad Software, San Diego, CA) and converted into Ki values. Each compound was tested in triplicate at least.
# (§3) 3. Radioligands and reference compounds for binding assay
# (§4) Table S1. A list of 5-HT receptor radioligands and reference compounds for binding assay.
# (§5) Receptor subtype Radioligand Reference compound
# (§6) 1A [3H]8-OH-DPAT Methysergide
# (§7) 2A [3H]Ketanserin Chlorpromazine
# (§8) 2C [3H]Mesulergine Chlorpromazine
# [2] = tested on: five human CYP450 isozymes; assay: CYP inhibition, all tested isozymes; settings: all the tested CYP isozymes
# Experimental: CYP inhibition values against five human CYP450 isozymes were recorded as % remaining activity values of the given isozymes.
# After incubation at 37 °C for 5 min, NADPH generation system solution was also added and incubated at 37 °C for 15 min again. To terminate the reaction, acetonitrile including internal standard (Terfenadine) was added, and the solution was centrifuged for 5 min (14,000 rpm, 4 °C).
# [3] = biological target: T2, 5-HT6 receptor (Homo sapiens, UniProt P50406); assay: 5-HT receptor radioligand binding affinity assay, 6; settings: for SI, selectivity index, 6: subtype Ki divided by 5-HT2C Ki
# T2 construct: expressed in transfected cells; host or cells: HEK293 or CHO
# T2 sequence (P50406 whole entry): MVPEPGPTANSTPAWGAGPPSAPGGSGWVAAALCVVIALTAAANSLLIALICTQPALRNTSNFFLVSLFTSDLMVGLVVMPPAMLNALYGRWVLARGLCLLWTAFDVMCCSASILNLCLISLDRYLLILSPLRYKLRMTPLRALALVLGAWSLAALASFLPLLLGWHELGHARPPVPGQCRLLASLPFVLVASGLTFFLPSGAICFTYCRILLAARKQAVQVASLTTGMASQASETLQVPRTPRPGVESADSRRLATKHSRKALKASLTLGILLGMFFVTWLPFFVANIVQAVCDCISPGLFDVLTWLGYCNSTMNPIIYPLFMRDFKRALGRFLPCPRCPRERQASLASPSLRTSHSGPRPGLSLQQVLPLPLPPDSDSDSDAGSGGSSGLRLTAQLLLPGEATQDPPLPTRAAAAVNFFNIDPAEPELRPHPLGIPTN
# Experimental: as §1, §2, §3, §4, §5, §6, §7, §8
# [4] = biological target: T3, 5-HT2C receptor (Homo sapiens, UniProt P28335); assay: 5-HT receptor radioligand binding affinity assay, 2C; parameters: expressed in transfected cells; settings: for %Binding at 10 μM, 2C: Table 3; for %binding / Ki: Table 2; for SI, selectivity index, 2C: subtype Ki divided by 5-HT2C Ki
# T3 sequence (P28335 33-458): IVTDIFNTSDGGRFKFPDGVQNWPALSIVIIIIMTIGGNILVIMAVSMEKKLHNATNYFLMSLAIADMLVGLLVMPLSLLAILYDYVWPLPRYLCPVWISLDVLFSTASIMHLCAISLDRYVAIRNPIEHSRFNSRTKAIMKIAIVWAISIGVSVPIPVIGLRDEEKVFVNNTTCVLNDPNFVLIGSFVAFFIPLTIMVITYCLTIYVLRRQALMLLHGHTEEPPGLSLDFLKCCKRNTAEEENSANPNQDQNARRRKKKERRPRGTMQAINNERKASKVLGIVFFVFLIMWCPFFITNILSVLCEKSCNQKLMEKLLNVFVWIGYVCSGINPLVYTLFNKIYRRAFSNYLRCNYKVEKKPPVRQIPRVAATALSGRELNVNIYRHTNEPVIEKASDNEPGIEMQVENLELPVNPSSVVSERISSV
# Experimental: as §1, §2, §3, §4, §5, §6, §7, §8
# [5] = biological target: T4, 5-HT5A receptor (Homo sapiens, UniProt P47898); assay: 5-HT receptor radioligand binding affinity assay, 5A
# T4 construct: expressed in transfected cells; host or cells: HEK293 or CHO
# T4 sequence (P47898 whole entry): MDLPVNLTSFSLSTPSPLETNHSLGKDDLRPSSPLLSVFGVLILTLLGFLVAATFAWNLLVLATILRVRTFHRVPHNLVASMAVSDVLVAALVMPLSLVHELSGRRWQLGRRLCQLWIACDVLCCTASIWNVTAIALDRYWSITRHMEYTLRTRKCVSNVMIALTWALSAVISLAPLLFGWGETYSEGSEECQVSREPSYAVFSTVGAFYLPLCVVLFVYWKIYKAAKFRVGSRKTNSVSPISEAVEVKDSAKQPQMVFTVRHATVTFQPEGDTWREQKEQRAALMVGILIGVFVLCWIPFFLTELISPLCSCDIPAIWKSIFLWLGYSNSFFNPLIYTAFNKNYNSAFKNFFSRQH
# Experimental: as §1, §2, §3
# (§9) Table S1. A list of 5-HT receptor radioligands and reference compounds for binding assay. […]
# [6] = Microsomal stability; type: in vitro ADME; settings: pH 7.4, human liver microsomes, read-out: HLM %Remaining @ 1 μM after 0.5 h
# Experimental: To human liver microsomes (0.5 mg/mL) were added 0.1 M phosphate buffer (pH 7.4) and tested compounds (1 μM).
# [7] = biological target: T3, 5-HT2C receptor; assay: 5-HT2C receptor cell-based functional assay (agonist mode, fluorescence-based); settings: Table 2; serotonin as reference compound
# Experimental: The synthesized compounds were tested in agonist mode with the 5-HT2C receptor assay using recombinant human HEK-293 cells serviced by either Eurofins Cerep or DGMIF (Daegu-Gyeongbuk Medical Innovation Foundation). All the experiments were duplicated.
# [8] = biological target: T5, 5-HT7 receptor (Homo sapiens, UniProt P34969); assay: 5-HT receptor radioligand binding affinity assay, 7; settings: for SI, selectivity index, 7: subtype Ki divided by 5-HT2C Ki
# T5 construct: expressed in transfected cells; host or cells: HEK293 or CHO
# T5 sequence (P34969 whole entry): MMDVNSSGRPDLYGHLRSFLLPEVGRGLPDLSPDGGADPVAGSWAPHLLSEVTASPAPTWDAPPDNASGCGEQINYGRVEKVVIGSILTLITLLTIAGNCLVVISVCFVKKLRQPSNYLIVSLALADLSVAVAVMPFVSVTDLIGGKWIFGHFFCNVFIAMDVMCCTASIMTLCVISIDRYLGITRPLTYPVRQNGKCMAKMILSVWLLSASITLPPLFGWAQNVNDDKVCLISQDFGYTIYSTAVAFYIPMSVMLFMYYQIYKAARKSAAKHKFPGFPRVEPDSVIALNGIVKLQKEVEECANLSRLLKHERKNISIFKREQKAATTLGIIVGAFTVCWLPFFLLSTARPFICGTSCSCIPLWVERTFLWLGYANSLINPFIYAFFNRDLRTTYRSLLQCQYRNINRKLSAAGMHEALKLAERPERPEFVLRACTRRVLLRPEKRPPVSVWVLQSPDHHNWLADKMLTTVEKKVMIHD
# Experimental: as §1, §2, §3, §4, §5, §6, §7, §8
# [9] = biological target: T6, 5-HT2A receptor (Homo sapiens, UniProt P28223); assay: 5-HT receptor radioligand binding affinity assay, 2A; settings: for SI, selectivity index, 2A: subtype Ki divided by 5-HT2C Ki
# T6 construct: expressed in transfected cells; host or cells: HEK293 or CHO
# T6 sequence (P28223 whole entry): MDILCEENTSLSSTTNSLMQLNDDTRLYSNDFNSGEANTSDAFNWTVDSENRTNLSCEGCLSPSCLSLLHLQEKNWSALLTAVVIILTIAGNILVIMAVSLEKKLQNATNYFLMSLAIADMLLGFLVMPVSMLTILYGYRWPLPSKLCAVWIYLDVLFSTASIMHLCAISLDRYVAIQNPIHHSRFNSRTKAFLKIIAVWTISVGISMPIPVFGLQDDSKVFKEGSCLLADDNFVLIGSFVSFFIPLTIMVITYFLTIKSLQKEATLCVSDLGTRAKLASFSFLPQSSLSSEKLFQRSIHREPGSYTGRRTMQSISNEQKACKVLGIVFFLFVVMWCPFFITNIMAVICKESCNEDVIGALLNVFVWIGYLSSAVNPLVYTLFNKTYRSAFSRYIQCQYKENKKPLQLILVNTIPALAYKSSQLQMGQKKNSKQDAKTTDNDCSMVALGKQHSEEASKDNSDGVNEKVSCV
# Experimental: as §1, §2, §3, §4, §5, §6, §7, §8
# [10] = biological target: T7, 5-HT1E receptor (Homo sapiens, UniProt P28566); assay: 5-HT receptor radioligand binding affinity assay, 1E
# T7 construct: expressed in transfected cells; host or cells: HEK293 or CHO
# T7 sequence (P28566 whole entry): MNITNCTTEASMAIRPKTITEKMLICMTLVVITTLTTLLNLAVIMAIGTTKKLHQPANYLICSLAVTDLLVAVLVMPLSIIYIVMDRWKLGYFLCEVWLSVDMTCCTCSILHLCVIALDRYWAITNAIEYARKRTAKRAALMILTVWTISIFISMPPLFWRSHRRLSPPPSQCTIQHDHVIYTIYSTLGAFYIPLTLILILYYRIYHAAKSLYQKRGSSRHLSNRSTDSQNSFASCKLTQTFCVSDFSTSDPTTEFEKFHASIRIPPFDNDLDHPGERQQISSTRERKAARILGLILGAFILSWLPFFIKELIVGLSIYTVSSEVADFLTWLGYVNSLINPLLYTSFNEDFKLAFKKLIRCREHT
# Experimental: as §1, §2, §3, §9
# [11] = biological target: T8, 5-HT1B receptor (Homo sapiens, UniProt P28222); assay: 5-HT receptor radioligand binding affinity assay, 1B
# T8 construct: expressed in transfected cells; host or cells: HEK293 or CHO
# T8 sequence (P28222 whole entry): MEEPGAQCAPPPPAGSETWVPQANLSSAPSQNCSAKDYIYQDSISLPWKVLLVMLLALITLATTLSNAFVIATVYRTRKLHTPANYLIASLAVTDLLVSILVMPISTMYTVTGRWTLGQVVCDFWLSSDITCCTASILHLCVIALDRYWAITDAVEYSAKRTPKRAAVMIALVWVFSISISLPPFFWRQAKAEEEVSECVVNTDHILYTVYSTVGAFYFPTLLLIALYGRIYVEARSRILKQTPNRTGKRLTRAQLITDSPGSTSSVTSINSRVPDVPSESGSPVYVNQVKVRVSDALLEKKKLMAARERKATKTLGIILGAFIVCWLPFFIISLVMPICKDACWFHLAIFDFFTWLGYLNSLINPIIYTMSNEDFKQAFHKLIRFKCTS
# [12] = biological target: T9, 5-HT1A receptor (Homo sapiens, UniProt P08908); assay: 5-HT receptor radioligand binding affinity assay, 1A; settings: for SI, selectivity index, 1A: subtype Ki divided by 5-HT2C Ki
# T9 construct: expressed in transfected cells; host or cells: HEK293 or CHO
# T9 sequence (P08908 1-422): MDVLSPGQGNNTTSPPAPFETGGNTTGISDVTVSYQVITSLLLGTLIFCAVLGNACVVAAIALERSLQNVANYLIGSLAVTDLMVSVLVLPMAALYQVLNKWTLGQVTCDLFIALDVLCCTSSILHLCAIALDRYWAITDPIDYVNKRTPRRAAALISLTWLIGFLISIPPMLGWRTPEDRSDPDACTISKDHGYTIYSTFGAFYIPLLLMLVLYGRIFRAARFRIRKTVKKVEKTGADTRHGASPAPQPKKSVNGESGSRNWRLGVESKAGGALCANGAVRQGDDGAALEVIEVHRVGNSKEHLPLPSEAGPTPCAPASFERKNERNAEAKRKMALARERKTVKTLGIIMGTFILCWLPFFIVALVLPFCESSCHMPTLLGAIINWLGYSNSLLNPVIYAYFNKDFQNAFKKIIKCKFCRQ
# Experimental: as §1, §2, §3, §4, §5, §6, §7, §8
# [13] = biological target: T10, 5-HT3 receptor (Homo sapiens, UniProt P46098); assay: 5-HT receptor radioligand binding affinity assay, 3; settings: for SI, selectivity index, 3: subtype Ki divided by 5-HT2C Ki
# T10 construct: expressed in transfected cells; host or cells: HEK293 or CHO
# T10 sequence (P46098 24-478): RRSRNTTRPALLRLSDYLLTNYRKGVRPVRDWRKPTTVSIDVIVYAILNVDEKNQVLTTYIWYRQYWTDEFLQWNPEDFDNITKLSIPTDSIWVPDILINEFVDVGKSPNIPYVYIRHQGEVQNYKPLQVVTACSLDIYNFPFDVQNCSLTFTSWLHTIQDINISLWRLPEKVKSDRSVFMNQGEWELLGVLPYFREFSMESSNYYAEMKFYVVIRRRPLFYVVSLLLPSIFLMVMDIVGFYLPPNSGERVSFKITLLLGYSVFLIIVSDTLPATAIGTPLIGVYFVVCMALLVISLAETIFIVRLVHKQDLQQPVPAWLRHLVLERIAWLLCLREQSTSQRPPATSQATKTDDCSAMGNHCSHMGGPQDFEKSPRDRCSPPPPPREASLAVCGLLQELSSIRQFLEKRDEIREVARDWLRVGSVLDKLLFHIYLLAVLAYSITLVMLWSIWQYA
# Experimental: as §1, §2, §3, §4, §5, §6, §7, §8
# [14] = Plasma stability; type: in vitro ADME; settings: human plasma, 37 °C
# [15] = biological target: T11, 5-HT2B receptor (Homo sapiens, UniProt P41595); assay: 5-HT receptor radioligand binding affinity assay, 2B; settings: for SI, selectivity index, 2B: subtype Ki divided by 5-HT2C Ki
# T11 construct: expressed in transfected cells; host or cells: HEK293 or CHO
# T11 sequence (P41595 whole entry): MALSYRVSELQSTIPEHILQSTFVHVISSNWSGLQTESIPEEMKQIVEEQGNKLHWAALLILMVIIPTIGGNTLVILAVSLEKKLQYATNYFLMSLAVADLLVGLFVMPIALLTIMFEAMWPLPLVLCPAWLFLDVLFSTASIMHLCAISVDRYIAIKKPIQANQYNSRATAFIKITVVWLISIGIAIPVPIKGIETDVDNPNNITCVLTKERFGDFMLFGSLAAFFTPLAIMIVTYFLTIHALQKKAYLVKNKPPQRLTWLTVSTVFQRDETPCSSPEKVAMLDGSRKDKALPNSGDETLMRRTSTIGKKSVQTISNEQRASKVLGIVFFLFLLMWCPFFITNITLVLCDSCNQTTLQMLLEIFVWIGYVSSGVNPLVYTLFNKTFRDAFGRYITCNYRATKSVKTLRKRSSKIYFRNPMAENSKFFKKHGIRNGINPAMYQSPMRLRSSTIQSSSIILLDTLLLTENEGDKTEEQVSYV
# Experimental: as §1, §2, §3, §4, §5, §6, §7, §8
# [16] = biological target: T6, 5-HT2A receptor; parameters: method as in PMID 28846591; settings: Figure 2; cited from earlier work
Compound,Ki [1],"%Binding at 10 μM, 1D [1]","SI, selectivity index, 1D [1]",Ki [3],"%Binding at 10 μM, 6 [3]","SI, selectivity index, 6 [3]","%Binding at 10 μM, 2C [4]",%binding [4],Ki [4],"SI, selectivity index, 2C [4]","%Binding at 10 μM, 5A [5]",Ki [8],"%Binding at 10 μM, 7 [8]","SI, selectivity index, 7 [8]",Ki [9],"%Binding at 10 μM, 2A [9]","SI, selectivity index, 2A [9]","%Binding at 10 μM, 1E [10]","%Binding at 10 μM, 1B [11]",Ki [12],also measured
"C[C@@H](Oc1nc(N2CCCNCC2)ncc1F)c1cccc(F)c1 [10a, (R)-1-(5-fluoro-4-(1-(3-fluorophenyl)ethoxy)pyrimidin-2-yl)-1,4-diazepane]",679 nM,71.4%,85.9,348 nM,50.7%,44.1,81.3%,81.3%,7.9 nM,1.0,22.5 /ND %,1020 nM,61.3%,128.6,1280 nM,75.5%,162.5,43.1 /ND^b %,56.1%,578 nM,"%remaining activity of isozymes [2]: > 60%; selectivity for other 5-HT receptor subtypes, difference in potency ([4]; 5-HT2C versus other 5-HT receptor subtypes): greater than 10 fold; remaining at 0.5 h, 1 μM [6]: 96.6%; %activation [7]: 81.0%; Ki [11]: 3240 nM; SI, selectivity index, 1B ([11]; subtype Ki divided by 5-HT2C Ki): 409.7; %Binding at 10 μM, 1A [12]: 74.1%; SI, selectivity index, 1A [12]: 73.2; Ki [13]: 323 nM; %Binding at 10 μM, 3 [13]: 89.0%; SI, selectivity index, 3 [13]: 40.9; remaining at 0.5 h, 10 μM ([14]; 0.5 h, read-out: Plasma Stability %Remaining @ 10 μM after 0.5 h): 99.9%; remaining at 2 h, 10 μM ([14]; 2 h, read-out: Plasma Stability %Remaining @ 10 μM after 2 h): 98%; Ki [15]: 83 nM; %Binding at 10 μM, 2B [15]: 98.0%; SI, selectivity index, 2B [15]: 10.5"
"C[C@@H]1CNCCN1c1ncc(F)c(O[C@H](C)c2ccc(F)cc2)n1 [compound 8, reference compound]",1050 nM,83.4%,178.3,30 nM,56.7%,5.1,89.0%,89.0%,5.9 nM,1.0,18.5 /ND^b %,528 nM,63.4%,89.5,511 nM,85.3%,86.6,48.0 /ND^b %,4.9 /ND^b %,271 nM,"Ki [16]: 1280 nM; %Binding at 10 μM, 1A [12]: 89.1%; SI, selectivity index, 1A [12]: 45.9; Ki [13]: 543 nM; %Binding at 10 μM, 3 [13]: 83.4%; SI, selectivity index, 3 [13]: 92.0; Ki [15]: 38 nM; %Binding at 10 μM, 2B [15]: 98.1%; SI, selectivity index, 2B [15]: 6.4"
